The results in this text go back to patent US10030016B2 (Sunesis Pharmaceuticals, Inc., priority 2009, dated 2018).

pEC50, pIC50: −log10 of the molar value. Structures can show the parent of a compound that is named as a salt. Where two headings read alike, the source gives them in different places. Bounds are passed on as bounds.

In assay [1] the test system is phospho-akt (Thr308) in PC-3 cells. The assay can be described thus: Inhibition of phospho-akt (Thr308) in PC-3 cells, MSD phospho-akt 308 ELISA kit. To be noted: Homo sapiens, 2 hours, no serum, read-out: EC50. It counts as cell-based. Summed up: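 PC-3 cells were seeded overnight in growth medium with 10% FBS, then exposed to compound serially diluted threefold in serum-free medium for 2 hours. Lysates were captured overnight at 4 degrees on MSD plates and phospho-Akt Thr308 was detected electrochemiluminescently, against DMSO high and 5 μM wortmannin low controls.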
For orientation: ELISA stands for enzyme-linked immunosorbent assay.

Another assay deals with PDK1 (Homo sapiens (Human), UniProt O15530). Nature of the assay: PDK1 kinase assay (coupled PDK1/AKT/FAM-crosstide assay, IMAP fluorescence polarization). Format: biochemical. The method, boiled down: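 PDK1 activity is measured indirectly through activation of a PIFtide-fused AKT2 construct that phosphorylates FAM-crosstide (100 nM). The reaction uses 0.75 nM PDK1, 40 μM ATP, 30 min, 25° C, with IMAP polarization detection.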

[2] abbreviates: inhibition of P308 Akt in PC-3 cells, MSD.
The mark [3] stands for this setting: inhibition of phospo-PDK1 in vitro.
Where [4] appears, read: inhibition of P308 Akt in PC-3 cells using MSD.
Where [5] appears, read: PC-3, 2 h, inhibition of P308 Akt in PC-3 cells, MSD.

Chain of PDK1 (O15530 51-359): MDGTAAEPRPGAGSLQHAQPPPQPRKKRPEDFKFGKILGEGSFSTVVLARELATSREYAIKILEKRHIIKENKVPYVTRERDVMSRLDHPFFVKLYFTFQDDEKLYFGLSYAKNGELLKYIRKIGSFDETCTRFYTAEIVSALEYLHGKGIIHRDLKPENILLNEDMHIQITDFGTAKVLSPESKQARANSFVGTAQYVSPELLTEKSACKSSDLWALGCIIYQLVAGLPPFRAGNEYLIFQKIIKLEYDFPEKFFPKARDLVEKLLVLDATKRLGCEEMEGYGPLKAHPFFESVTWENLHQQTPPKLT

The term pEC50 denotes the EC50 on a negative log10 scale, so that one unit is a factor of ten. As usually defined, the pIC50 is the negative decadic logarithm of the IC50, by convention in mol/L. As for `O=C1Nc2cc(/C=C/CNc3ncccc3C(=O)NCc3ccc(F)c(F)c3)ccc2/C1=C/c1ncc[nH]1` [Example 15.12, N-(3,4-Difluoro-benzyl)-2-((E)-3-{3-[1-(1H-imidazol-2-yl)-meth-(Z)-ylidene]-2-oxo-2,3-dihydro-1H-indol-6-yl}-allylamino)-nicotinamide], in assay [1] (setting [2]), the pEC50 was 5.00 to 6.00. The compound also showed a negative logarithm of the IC50 (pIC50) on PDK1 (setting [3]) greater than 7.00.
In the case of `CC(Nc1ncc(C#N)nc1C(=O)N[C@@H](C)c1ccc(F)c(F)c1)c1ccc(-c2cnc3[nH]nc(N)c3c2)cc1` (stereo in doubt) [Example 350, 3-((R)-1-(4-(3-amino-1H-pyrazolo[3,4-b]pyridin-5-yl)phenyl)ethylamino)-6-cyano-N-((S)-1-(3,4-difluorophenyl)ethyl) pyrazine-2-carboxamide], in assay [1] (setting [4]), the pEC50 is less than 5.00. Further, the pIC50 at PDK1 (inhibition of PDK1 in vitro) was less than 5.30.
With `C[C@H](NC(=O)c1cccnc1NCc1ccc(-c2cc3c(N)ncnc3cn2)s1)c1ccc(F)c(F)c1` [Example 7.16, 2-({[5-(4-aminopyrido[3,4-d]pyrimidin-6-yl)thiophen-2-yl]methyl}amino)-N-[(1S)-1-(3,4-difluorophenyl)ethyl] pyridine-3-carboxamide], the pEC50 in assay [1] (setting [2]) is 5.00 to 6.00. Further, the pIC50 at PDK1 (setting [3]) was 6.00 to 7.00.
The like results for `Nc1ncnc2ccc(-c3ccc(CNc4ncc(NC(=O)Cc5ccccc5)cc4C(=O)NCc4ccc(F)c(F)c4)s3)cc12` [Example 8.5.4, 2-({[5-(4-aminoquinazolin-6-yl)thiophen-2-yl]methyl}amino)-N-(3,4-difluorobenzyl)-5-[(phenylacetyl)amino] pyridine-3-carboxamide] were, in that order, 5.00 to 6.00 and 5.30 to 6.00.
The like results for `C[C@H](NC(=O)c1cc(C(F)(F)F)cnc1NCc1ccc(-c2ccc3ncc4ncn(C)c4c3c2)s1)c1ccc(F)c(F)c1` [Example 2.27, (S)-5-trifluoromethyl-N-(1-(3,4-difluorophenyl)ethyl)-2-(((5-(1-methyl-1H-imidazo[4,5-c]quinolin-8-yl)thiophen-2-yl)methyl)amino)nicotinamide] were, in that order, greater than 6.00 and greater than 7.00.
For the compound `NCCCc1nc(-c2ccc(CNc3ncc(C(F)(F)F)cc3C(=O)NCc3ccc(F)c(F)c3)cc2)cnc1N` [Example 72, 2-{4-[5-Amino-6-(3-amino-propyl)-pyrazin-2-yl]-benzyl-amino}-N-(3,4-difluoro-benzyl)-5-trifluoromethyl-nicotinamide], the pEC50 in assay [1] (setting [4]) was 5.00 to 6.00. Also, the pIC50 against PDK1 (inhibition of PDK1 in vitro) is greater than 7.00.
The like results for `N#Cc1cnc(NCc2ccc(-c3c[nH]c4ncnc(N)c34)cc2)c(-c2nccs2)c1` [Example 352] were, in that order, less than 5.00 and greater than 7.00.
`Nc1ncc(-c2ccc(CNc3ncc(C(F)(F)F)cc3C(=O)Nc3ccc(F)cc3)cc2)nc1N1CCC[C@H](N)C1` [Example 196]: the pEC50 in assay [1] (setting [4]) was greater than 6.00. On PDK1 (inhibition of PDK1 in vitro), this compound had a pIC50 greater than 7.00.
The like results for `C[C@H](NC(=O)c1nc(C#N)cnc1NCc1ccc(-c2cnc(N)c(OCCN)n2)cc1)c1ccc(F)c(F)c1` [Example 167, 3-{4-[5-Amino-6-(2-amino-ethoxy)-pyrazin-2-yl]-benzylamino}-6-cyano-pyrazine-2-carboxylic acid [(S)-1-(3,4-difluoro-phenyl)-ethyl]-amide] were, in that order, greater than 6.00 and greater than 7.00.
Turning to `CC(NC(=O)c1cccnc1NCc1ccc(-c2ccc3ncnc(N)c3c2)s1)c1ccc(F)c(F)c1` (centres unmarked) [Example 3.19, 2-({[5-(4-aminoquinazolin-6-yl)thiophen-2-yl]methyl}amino)-N-[1-(3,4-difluorophenyl)ethyl] pyridine-3-carboxamide (TFA salt)], the pEC50 in assay [1] (setting [5]) was less than 5.00. Besides, at PDK1 (setting [3]), the pIC50 was 6.00 to 7.00.
In the case of `O=C(c1cccnc1NCc1cccc(-c2c[nH]c3ncccc23)c1)N1CCCCC1` [Example 1.13, Piperidin-1-yl(2-{[3-(1H-pyrrolo [2,3-b]pyridin-3-yl)benzyl]amino}pyridin-3-yl)methanone], the pEC50 in assay [1] (setting [2]) was less than 5.00. On PDK1 (setting [3]), the pIC50 was less than 5.30.
Regarding `Cn1cc(-c2ccc(CNc3ncc(C(F)(F)F)cc3C(=O)Nc3ccc(F)cc3)cn2)c2c(N)ncnc21` [Example 56, 2-(((6-(4-amino-7-methyl-7H-pyrrolo[2,3-d]pyrimidin-5-yl)pyridin-3-yl)methyl)amino)-N-(4-fluorophenyl)-5-(trifluoromethyl)nicotinamide], in assay [1] (setting [4]), the pEC50 is greater than 6.00. The same compound showed a pIC50 at PDK1 (inhibition of PDK1 in vitro) greater than 7.00.
On to `C[C@H](NC(=O)c1cc(C#N)cnc1NCc1ccc(-c2cnc(N)c(CCCO)n2)cc1)c1ccc(F)cc1` [Example 91, 2-{4-[5-Amino-6-(3-hydroxy-propyl)-pyrazin-2-yl]-benzyl-amino}-5-cyano-N-[(S)-1-(4-fluoro-phenyl)-ethyl]-nicotinamide], for which the pEC50 in assay [1] (setting [4]) is greater than 6.00. This compound also had a negative-log IC50 (pIC50) against PDK1 (inhibition of PDK1 in vitro) greater than 7.00.
Take `CC(C)Oc1cc(CNc2ncccc2C(=O)NCc2ccc(F)c(F)c2)cc(-c2c[nH]c3ncccc23)c1` [Example 5.7, N-(3,4-difluorobenzyl)-2-(3-isopropoxy-5-(1H-pyrrolo[2,3-b]pyridin-3-yl)benzylamino)nicotinamide]: in assay [1] (setting [2]), the pEC50 was 5.00 to 6.00. The compound also showed a pIC50 at PDK1 (setting [3]) greater than 7.00.
Consider `Nc1n[nH]c2ncc(-c3ccc(CNc4ncc(C(F)(F)F)cc4C(=O)NCc4cccc(Cl)c4)cc3)cc12` [Example 281, 2-(4-(3-amino-1H-pyrazolo [3,4-b]pyridin-5-yl)benzylamino)-N-(3-chlorobenzyl)-5-(trifluoromethyl)nicotinamide], for which the negative-log EC50 (pEC50) in assay [1] (setting [4]) is greater than 6.00. The pIC50 on PDK1 (inhibition of PDK1 in vitro) is greater than 7.00.
For `CN1CCN(S(=O)(=O)c2cnc(NCc3ccc(-c4ccc5ncnc(N)c5c4)s3)c(C(=O)NCc3ccc(F)c(F)c3)c2)CC1` [Example 8.6.10, 2-(((5-(4-aminoquinazolin-6-yl)thiophen-2-yl)methyl)amino)-N-(3,4-difluorobenzyl)-5-(4-methylpiperazin-1-ylsulfonyl)nicotinamide], the negative logarithm of the EC50 (pEC50) in assay [1] (setting [5]) is 5.00 to 6.00. This compound also had a negative-log IC50 (pIC50) on PDK1 (setting [3]) of 6.00 to 7.00.
Take `C[C@H](NC(=O)c1nc(C#N)cnc1NCc1ccc(-c2cnc(N)c(NCCN)n2)cc1)c1ccc(F)c(F)c1` [Example 195, 3-{4-[5-Amino-6-(2-amino-ethylamino)-pyrazin-2-yl]-benzylamino}-6-cyano-pyrazine-2-carboxylic acid [(S)-1-(3,4-difluoro-phenyl)-ethyl]-amide]: in assay [1] (setting [4]), the pEC50 was greater than 6.00. Further, at PDK1 (inhibition of PDK1 in vitro), the pIC50 was greater than 7.00.
The like results for `Nc1n[nH]c2ncc(-c3ccc(CNc4ncc(C(F)(F)F)cc4C(=O)N[C@H](CO)c4ccc(Br)cc4)cc3)cc12` [Example 437, (S)-2-(4-(3-amino-1H-pyrazolo[3,4-b]pyridin-5-yl)benzylamino)-N-(1-(4-bromophenyl) 2-hydroxyethyl)-5-(trifluoromethyl)nicotinamide] were, in that order, less than 5.00 and 5.30 to 6.00.
The like results for `C[C@H](NC(=O)c1nc(C#N)cnc1NCc1ccc(-c2cn(CCN(C)C)c3ncnc(N)c23)cc1)c1ccc(F)c(F)c1` [Example 398, (S)-3-(4-(4-amino-7-(2-(dimethylamino)ethyl)-7H-pyrrolo[2,3-d]pyrimidin-5-yl)benzylamino)-6-cyano-N-(1-(3,4-difluorophenyl)ethyl)pyrazine-2-carboxamide] were, in that order, 5.00 to 6.00 and greater than 7.00.
As for `Nc1ncnc2ccc(-c3ccc(CNc4ncccc4C(=O)NCc4ccccc4)s3)cc12` [Example 3.56, 2-({[5-(4-aminoquinazolin-6-yl)thiophen-2-yl]methyl}amino)-N-benzylpyridine-3-carboxamide (TFA salt)], the pEC50 in assay [1] (setting [2]) is 5.00 to 6.00. The negative-log IC50 (pIC50) against PDK1 (setting [3]) was 6.00 to 7.00.
For the compound `Nc1ncnn2ccc(-c3ccc(CNc4ncc(C(F)(F)F)cc4C(=O)NCc4ccc(F)c(F)c4)cc3)c12` [Example 176, 2-[4-(4-Amino-pyrrolo [2,1-f][1,2,4]triazin-5-yl)-benzylamino]-N-(3,4-difluoro-benzyl)-5-trifluoromethyl-nicotinamide], the pEC50 in assay [1] (setting [4]) is 5.00 to 6.00. The pIC50 at PDK1 (inhibition of PDK1 in vitro) was greater than 7.00.
Consider `C[C@@H](NC(=O)c1cc(C(F)(F)F)cnc1NCc1ccc(-c2cnc3[nH]nc(N)c3c2)cc1)c1ccc(Br)cc1` [Example 275, (R)-2-(4-(3-amino-1H-pyrazolo[3,4-b]pyridin-5-yl)benzylamino)-N-(1-(4-bromophenyl)ethyl)-5-(trifluoromethyl) nicotinamide], for which the pEC50 in assay [1] (setting [4]) is less than 5.00. For the same compound, the pIC50 against PDK1 (inhibition of PDK1 in vitro) is less than 5.30.
On to `CCOc1cnc(NCc2ccc(-c3ccc4ncnc(N)c4c3)s2)c(C(=O)NCc2ccc(F)c(F)c2)c1` [Example 8.1.3, 2-({[5-(4-aminoquinazolin-6-yl)thiophen-2-yl]methyl}amino)-N-(3,4-difluorobenzyl)-5-ethoxypyridine-3-carboxamide], for which the pEC50 in assay [1] (setting [2]) was less than 5.00. For the same compound, at PDK1 (setting [3]), the pIC50 was less than 5.30.
Consider `C[C@H](NC(=O)c1cc(C#N)cnc1NCc1ccc(-c2ccc(N)nc2)c(F)c1)c1ccc(F)cc1` [Example 129, (S)-2-(4-(6-aminopyridin-3-yl)-3-fluorobenzylamino)-5-cyano-N-(1-(4-fluorophenyl)ethyl) nicotinamide], for which the pEC50 in assay [1] (setting [4]) is 5.00 to 6.00. At PDK1 (inhibition of PDK1 in vitro), this compound had a pIC50 of 6.00 to 7.00.
For the compound `C[C@H](NC(=O)c1nc(C#N)cnc1N[C@H](C)c1ccc(-c2c[nH]c3ncnc(N)c23)cc1)c1ccc(F)c(F)c1` [Example 402, 3-((R)-1-(4-(4-amino-7H-pyrrolo[2,3-d]pyrimidin-5-yl)phenyl)ethylamino)-6-cyano-N-((S)-1-(3,4-difluorophenyl)ethyl)pyrazine-2-carboxamide], the pEC50 in assay [1] (setting [4]) is greater than 6.00. On PDK1 (inhibition of PDK1 in vitro), this compound gave a pIC50 greater than 7.00.
